Measured values as given in patent US9758472B2, “Non-lactone carbocyclic and heterocyclic antagonists and agonists of bacterial quorum sensing” (WISCONSIN ALUMNI RESEARCH FOUNDATION, priority 2009, dated 2017).
pEC50, pIC50: −log10 of the molar value.

Assays:
LasR [1] = target: T1, LasR (Pseudomonas aeruginosa, UniProt P25084); experiment: LasR agonism assay, E. coli DH5α (pJN105L+pSC11) β-galactosidase reporter strain; format: cell-based, P. aeruginosa; details: for Act %: thiolactone libraries, E. coli, synthetic ligands tested at 10 μM; for Agonist, percent of activation compared to the positive control: initial library (FIG. 4); for Agonist, percent of activation compared to the positive control / LasR agonism, in words / pEC50: E. coli DH5α (pJN105L+pSC11); for pEC50: dose response
T1 construct: expressed in transfected cells; host or cells: Escherichia coli DH5α (pJN105L+pSC11)
T1 sequence (P25084 whole entry): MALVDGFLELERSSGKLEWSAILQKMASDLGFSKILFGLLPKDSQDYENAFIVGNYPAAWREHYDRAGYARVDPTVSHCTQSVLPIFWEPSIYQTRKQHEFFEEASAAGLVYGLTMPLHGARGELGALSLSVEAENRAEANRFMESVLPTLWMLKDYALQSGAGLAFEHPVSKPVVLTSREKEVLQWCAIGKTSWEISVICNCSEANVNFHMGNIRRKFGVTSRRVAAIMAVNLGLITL
Protocol: (§1) The black bars are DH5α (pJN105L+pSC11) and the grey bars are PA01 MW1 (pUM15). Agonism positive control=activity of the reporter strain at full turn on for the strain. […] Negative control (Neg)=bacteria in the absence of natural and synthetic ligand. Error bars=standard deviation of the mean of triplicate samples.
(§2) The initial library was tested for LasR agonistic and antagonistic activity in two strains: Escherichia coli DH5α (pJN105L+pSC11) [Lee, J. H.; Lequette, Y.; Greenberg, E. P., Activity of purified QscR, a Pseudomonas aeruginosa orphan quorum-sensing transcription factor. Mol. Microbiol. 2006, 59 (2), 602-609] and P. aeruginosa PA01 MW1 (pUM15) [Muh, U.; Schuster, M.; Heim, R.; Singh, A.; Olson, E.; Greenberg, E. P., Novel Pseudomonas aeruginosa Quorum-Sensing Inhibitors Identified in an Ultra-High-Throughput Screen. Antimicrob. Agents Chemother. 2006, 50, 3674-3679] (FIGS. 5A and 5B). Both strains allow for synthetic autoinducer mimic evaluation and contain a reporter gene that allows for a quantitative readout of QS activity. DH5α (pJN105L+pSC11) is a heterologous β-galactosidase E. coli reporter strain containing a plasmid for the P. aeruginosa LasR gene. The PA01 MW1 (pUM15) strain uses the natural P. aeruginosa background containing a LasI deletion and the gene for yellow fluorescent protein (YFP) under the control of the LasI promoter to evaluate the LasI/R activity. Since the PA01 MW1 (pUM15) strain evaluates LasR in the natural P. aeruginosa background, in contrast to the heterologous E. coli strain, an improved idea of the interplay between the isolated LasI/R system and the combination of LasI/R with other QS subsystems such as QscR can be determined. Furthermore, additional nuances of the natural system such as compound permeability are incorporated in assays using the PA01 MW1 (pUM15) strain.

LuxR [2] = target: T2, LuxR (Aliivibrio fischeri, UniProt P35327); experiment: cell-based; format: cell-based, Vibrio fischeri; parameters: The initial library was also tested in Vibrio fischeri ESI 114 (Δ-LuxI); endogenous in cells; host or cells: Vibrio fischeri ESI 114 (Δ-LuxI); details: for Inhib %: thiolactone libraries, V. fischeri, synthetic ligands tested at 10 μM; for Antagonism, in words: V. fischeri strain; for Antagonist, percent inhibition compared to a positive control: initial library (FIG. 4); for Antagonist, percent inhibition compared to a positive control / pIC50: V. fischeri ESI 114 (Δ-LuxI); for pIC50: dose response
T2 sequence (P35327 whole entry): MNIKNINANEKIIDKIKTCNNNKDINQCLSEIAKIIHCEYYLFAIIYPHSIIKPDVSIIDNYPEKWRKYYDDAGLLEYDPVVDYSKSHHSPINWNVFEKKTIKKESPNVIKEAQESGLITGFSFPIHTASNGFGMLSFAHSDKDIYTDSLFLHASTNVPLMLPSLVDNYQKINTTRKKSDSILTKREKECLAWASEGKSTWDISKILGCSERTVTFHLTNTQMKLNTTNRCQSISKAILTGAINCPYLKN
Protocol: (§3) The initial library was also tested in Vibrio fischeri ESI 114 (Δ-LuxI) [Lupp, C.; Urbanowski, M.; Greenberg, E. P.; Ruby, E. G., The Vibrio fischeri quorum-sensing systems ain and lux sequentially induce luminescence gene expression and are important for persistence in the squid host. Mol. Microbiol. 2003, 50 (1), 319-331] and Agrobacterium tumefaciens WCF (pCF372). […] J. Bacteriol. 1998, 180 (20), 5398-5405.] […] [Geske, G. D.; O'Neill, J. C.; Miller, D. M.; Mattmann, M. E.; Blackwell, H. E., Modulation of Bacterial Quorum Sensing: Systematic Evaluation of N-Acylated Homoserine Lactones in Multiple Species and New Insights into Their Mechanism of Action. J. Am. Chem. Soc. 2007, 129, 13613-13625.]

LasR [3] = target: T1, LasR; experiment: LasR agonism assay, P. aeruginosa PA01 MW1 (pUM15) YFP reporter strain; format: cell-based; details: for Act %: thiolactone libraries, P. aeruginosa, synthetic ligands tested at 10 μM; for Agonist, percent of activation compared to the positive control: initial library (FIG. 4), P. aeruginosa PA01 MW1; for pEC50: dose response
Protocol: as §1, §2

LasR [4] = target: T1, LasR; experiment: LasR antagonism assay, E. coli DH5α (pJN105L+pSC11) β-galactosidase reporter strain; format: cell-based, P. aeruginosa; details: thiolactone libraries, synthetic ligands tested at 10 μM
TraR = TraR (Agrobacterium tumefaciens, UniProt P33905); experiment: cell-based; format: cell-based; parameters: and Agrobacterium tumefaciens WCF (pCF372); endogenous in cells; host or cells: Agrobacterium tumefaciens WCF (pCF372); details: for Inhib %: thiolactone libraries, A. tumefaciens, synthetic ligands tested at 10 μM; for pIC50: dose response
TraR, sequence (P33905 whole entry): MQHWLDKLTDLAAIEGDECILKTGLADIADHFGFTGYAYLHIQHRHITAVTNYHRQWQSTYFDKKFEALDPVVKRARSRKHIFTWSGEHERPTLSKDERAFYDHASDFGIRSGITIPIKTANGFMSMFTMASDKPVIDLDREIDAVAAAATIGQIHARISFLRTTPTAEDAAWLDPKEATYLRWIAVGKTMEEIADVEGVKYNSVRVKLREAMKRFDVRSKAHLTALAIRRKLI
Protocol: as §3

LasR [5] = target: T1, LasR; experiment: LasR antagonism assay, E. coli DH5α (pJN105L+pSC11) β-galactosidase reporter strain; format: cell-based, P. aeruginosa; details: E. coli DH5α (pJN105L+pSC11); for Antagonist, percent inhibition compared to a positive control: initial library (FIG. 4), negative values indicate agonist properties; for pIC50: dose response
Protocol: (§4) FIG. 5B is a bar graph showing the results of […] assay for initial heterocyclic and carbocyclic library (Scheme 1) shown as a percent of the positive control. Antagonism positive control (Pos)=activity of the reporter strain in the absence of synthetic ligand at the EC50 value for the strain. […] Negative control (Neg)=bacteria in the absence of natural and synthetic ligand. Error bars=standard deviation of the mean of triplicate samples.
as §2

LasR [6] = target: T1, LasR; experiment: LasR antagonism assay, P. aeruginosa PA01 MW1 (pUM15) YFP reporter strain; format: cell-based; details: for LasR antagonism, in words: P. aeruginosa PA01 MW1 (pUM15), natural background; for Antagonist, percent inhibition compared to a positive control: initial library (FIG. 4), P. aeruginosa PA01 MW1, negative values indicate agonist properties
Protocol: as §4, §2

LuxR [7] = target: T2, LuxR; details: V. fischeri ESI 114 (Δ-LuxI); for Agonist, percent of activation compared to the positive control: initial library (FIG. 4)
Protocol: as §3

| Compound | Act % (LasR [1]) [%] | Inhib % (LuxR [2]) [%] | Act % (LasR [3]) [%] | Inhib % (LasR [4]) [%] | Inhib % (TraR) [%] | further results |
| --- | --- | --- | --- | --- | --- | --- |
| O=C(Cc1ccc(Br)cc1)NC1CCSC1=O (racemic) [Compound 18] | 2 | 97 | 8 | 80 | −60 |  |
| O=C(Cc1cccc([N+](=O)[O-])c1)NC1CCSC1=O (racemic) [Compound 19] | 82 | 19 | 5 | −13 | 33 |  |
| COc1ccc(CC(=O)NC2CCSC2=O)cc1 (racemic) [Compound 20] | 1 | 70 | 7 | 51 | −107 |  |
| O=C(Cc1ccccc1)NC1CCSC1=O (racemic) [Compound 21] | 2 | 34 | 2 | 65 | −22 |  |
| O=C(CCc1c[nH]c2ccccc12)NC1CCSC1=O (racemic) [Compound 22] | 4 | 68 | 10 | 16 | −80 |  |
| O=C(Cc1ccc(-c2ccccc2)cc1)NC1CCSC1=O (racemic) [Compound 23] | 9 | 98 | 3 | 56 | 9 |  |
| CCCCCCCCCC(=O)CC(=O)NC1CCSC1=O (stereo not shown) [Compound 1] | 94 | 99 | 88 | −40 | 92 | Agonist, percent of activation compared to the positive control (LasR [1]): 94%; Antagonism, in words (LuxR [2]): good antagonist; Antagonist, percent inhibition compared to a positive control (LuxR [2]): 92%; Agonist, percent of activation compared to the positive control (LasR [3]): 88%; Antagonism, in words (TraR; A. tumefaciens strain): good antagonist; Antagonist, percent inhibition compared to a positive control (TraR; initial library (FIG. 4), A. tumefaciens WCF (pCF372), negative values indicate agonist properties): 65% |
| CCCCCCCCCC(=O)CC(=O)Nc1ccccc1 [Compound 2] |  |  |  |  |  | LasR antagonism, in words (LasR [5]): antagonism capabilities; Antagonist, percent inhibition compared to a positive control (LasR [5]): 53.7%; LasR antagonism, in words (LasR [6]): antagonism capabilities; Antagonist, percent inhibition compared to a positive control (LasR [6]): 28.7% |
| CCCCCCCCCC(=O)CC(=O)NC1CCCC1 [Compound 3] |  |  |  |  |  | LasR agonism, in words (LasR [1]): agonist; Agonist, percent of activation compared to the positive control (LasR [1]): 83.5%; Antagonism, in words (LuxR [2]): modest antagonist; Antagonist, percent inhibition compared to a positive control (LuxR [2]): 89.4%; LasR agonism, in words (LasR [3]; P. aeruginosa PA01 MW1 (pUM15), natural background): agonist; Agonist, percent of activation compared to the positive control (LasR [3]): 54.2% |
| CCCCCCCCCC(=O)CC(=O)NCc1ccccc1F [Compound 7] |  |  |  |  |  | Antagonist, percent inhibition compared to a positive control (LasR [5]): 38.8%; Agonist, percent of activation compared to the positive control (LuxR [7]): 3.1% |
| CCCCCCCCCC(=O)CC(=O)NCc1ccco1 [Compound 10] |  |  |  |  |  | Agonist, percent of activation compared to the positive control (LuxR [7]): 3.3%; Antagonist, percent inhibition compared to a positive control (LasR [6]): 25.5% |
| CCCCCCCCCC(=O)CC(=O)NCc1ccc(OC)cc1 [Compound 14] |  |  |  |  |  | Antagonist, percent inhibition compared to a positive control (LasR [5]): −67.7%; LasR agonism, in words (LasR [1]): strongly agonized; Agonist, percent of activation compared to the positive control (LasR [1]): 73.0%; LasR antagonism, in words (LasR [6]): slight antagonism; Antagonist, percent inhibition compared to a positive control (LasR [6]): 37.8%; Antagonist, percent inhibition compared to a positive control (LuxR [2]): 14.6% |
| O=C(Cc1ccc(Br)cc1)N[C@H]1CCSC1=O [Compound 18E] | 8 | 91 | 5 | 68 | 25 | pIC50 (LasR [5]): 6.40; pIC50 (LuxR [2]): 6.11 |
| O=C(Cc1cccc([N+](=O)[O-])c1)N[C@H]1CCSC1=O [Compound 19E] | 81 | 30 | 3 | −3 | 30 | pEC50 (LasR [1]): 5.39; pEC50 (LuxR [7]; dose response): 4.96 |
| COc1ccc(CC(=O)N[C@H]2CCSC2=O)cc1 [Compound 20E] | 0 | 59 | 4 | 48 | −24 | pIC50 (LasR [5]): 5.14 |
| O=C(Cc1ccccc1)N[C@H]1CCSC1=O [Compound 21E] | 3 | 30 | 17 | 61 | 13 | pIC50 (LasR [5]): 5.60 |
| O=C(Cc1ccc(-c2ccccc2)cc1)N[C@H]1CCSC1=O [Compound 23E] | 0 | 85 | 1 | 45 | 26 | pIC50 (LasR [5]): 5.54; pIC50 (LuxR [2]): 6.46 |
| CCCCCCCCCCCC(=O)N[C@H]1CCSC1=O [Compound 25E] | 4 | 57 | 42 | −93 | 6 | LasR agonism, in words (LasR [1]): strong agonists; pEC50 (LasR [1]): 5.72; pEC50 (LasR [3]; P. aeruginosa PA01 MW1 (pUM15)): 4.68 |
| CCCCCCCC(=O)N[C@H]1CCSC1=O [Compound 26E] | 85 | 80 | 0 | 64 | 99 | pIC50 (LasR [5]): 6.85; pIC50 (LuxR [2]): 6.89; pIC50 (TraR; A. tumefaciens WCF (pCF372)): 5.55 |
| CCCCCCC(=O)N[C@H]1CCSC1=O [Compound 27E] | 8 | 78 | 0 | 78 | 78 | pIC50 (LasR [5]): 6.10; pIC50 (LuxR [2]): 6.51; pIC50 (TraR; A. tumefaciens WCF (pCF372)): 5.00 |
| CCCCCC(=O)N[C@H]1CCSC1=O [Compound 28E] | 1 | 93 | 20 | 59 | −78 | pIC50 (LasR [5]): 5.96; pIC50 (LuxR [2]): 6.08 |
| CCCC(=O)N[C@H]1CCSC1=O [Compound 29E] | 4 | 42 | 22 | 17 | −70 |  |
| CCCC(=O)CC(=O)N[C@H]1CCSC1=O [Compound 30E] | 6 | 62 | 76 | −119 | 93 | pEC50 (LasR [1]): 6.89; pEC50 (LasR [3]; P. aeruginosa PA01 MW1 (pUM15)): 4.89; pIC50 (TraR; A. tumefaciens WCF (pCF372)): 5.49 |
| CCOC(=O)CNC(=O)CCc1cccc(I)c1 [Compound 34] |  |  |  |  |  | Antagonism, in words (LuxR [2]): excellent antagonistic activity |
